Consider 17 compounds from ChEMBL document CHEMBL1149807, “Synthesis and anticancer activity of new class of bisphosphonates/phosphanamidates” (Eur J Med Chem, 2008).

Assay type in all cases: functional, cell-based
For one test, the system named is MCF7. Nature of the test: Growth inhibition of human MCF7 cells by MTT assay. On the technique in general: Formazan colour is commonly taken as a measure of viable cells.
The next test concerns NCI-H460. Nature of the test: Growth inhibition of human NCI-H460 cells by MTT assay.
In the next test the test system is SF-268. As to the kind of experiment: Growth inhibition of human SF268 cells by MTT assay.

As for `O=P1(C(c2ccccc2)P2(=O)Oc3ccccc3CN2c2ccc(F)c(Cl)c2)Oc2ccccc2CN1c1ccc(F)c(Cl)c1` (stereo unspecified), the IC50 came out at 4.05 µM in the test on MCF7, 3.77 µM in the test with NCI-H460 and 2.8 µM in the test with SF-268.
`CC1(C)COP(=O)(C(c2cccc([N+](=O)[O-])c2)P2(=O)OCC(C)(C)CO2)OC1`: the IC50 in the test on MCF7, in the test with NCI-H460 and in the test with SF-268 was > 1000 µM each time.
Regarding `Cc1ccc(C(P2(=O)Oc3ccccc3CN2c2ccc(F)c(Cl)c2)P2(=O)Oc3ccccc3CN2c2ccc(F)c(Cl)c2)cc1` (stereo unspecified), the IC50 was 12.7 µM with MCF7, 9 µM in the test on NCI-H460 and 7.69 µM in the test on SF-268.
As to `CC1(C)COP(=O)(C(c2ccccc2)P2(=O)OCC(C)(C)CO2)OC1`, the IC50 with MCF7, with NCI-H460 and in the test with SF-268 was > 1000 µM throughout.
Take `CC1(C)COP(=O)(C(/C=C/c2ccccc2)P2(=O)OCC(C)(C)CO2)OC1`: the IC50 in the test on MCF7, in the test with NCI-H460 and in the test on SF-268 was > 1000 µM throughout.
For `O=P1(C(c2ccc(Cl)cc2)P2(=O)Oc3ccccc3CN2c2ccc(F)c(Cl)c2)Oc2ccccc2CN1c1ccc(F)c(Cl)c1` (stereo unspecified), the IC50 in the test on MCF7 came out at 14.3 µM; with NCI-H460, 10.9 µM; in the test with SF-268, 11.2 µM.
In the same order, the values of `NP(=O)(O)C(c1ccc(Cl)cc1)P(N)(=O)O` (stereo unspecified) are 71.3 µM, 75.2 µM and 90.4 µM.
As to `O=P1(C(c2ccncc2)P2(=O)Oc3ccccc3CN2c2ccc(F)c(Cl)c2)Oc2ccccc2CN1c1ccc(F)c(Cl)c1` (stereo unspecified), the IC50 in the test on MCF7 was 11.5 µM; with NCI-H460 it was 12.3 µM; in the test on SF-268, 11.7 µM.
In the case of `CCN(CC)c1ccc(C(P2(=O)Oc3ccccc3CN2c2ccc(F)c(Cl)c2)P2(=O)Oc3ccccc3CN2c2ccc(F)c(Cl)c2)cc1` (stereo unspecified), the IC50 with MCF7 worked out at 5.71 µM; in the test on NCI-H460, 5.69 µM; with SF-268, 3.85 µM.
The like results for `CC1(C)COP(=O)(C(c2ccc(Cl)cc2)P2(=O)OCC(C)(C)CO2)OC1` were, in that order, > 1000 µM, > 1000 µM and > 1000 µM.
With `O=P1(C(/C=C/c2ccccc2)P2(=O)Oc3ccccc3CN2c2ccc(F)c(Cl)c2)Oc2ccccc2CN1c1ccc(F)c(Cl)c1` (stereo unspecified), the concentration for half-maximal inhibition (IC50) in the test on MCF7 amounted to 13.1 µM; in the test with NCI-H460 it was 11.8 µM; in the test with SF-268 it was 11.6 µM.
As to `O=[N+]([O-])c1cccc(C(P2(=O)Oc3ccccc3CN2c2ccc(F)c(Cl)c2)P2(=O)Oc3ccccc3CN2c2ccc(F)c(Cl)c2)c1` (stereo unspecified), the results for the IC50 in the test with MCF7, in the test with NCI-H460 and with SF-268 were 17.6 µM, 13 µM and 10.7 µM, respectively.
Turning to `CCN(CC)c1ccc(C(P2(=O)OCC(C)(C)CO2)P2(=O)OCC(C)(C)CO2)cc1`, the IC50 with MCF7, with NCI-H460 and with SF-268 was > 1000 µM throughout.
As to `CC1(C)COP(=O)(C(c2ccncc2)P2(=O)OCC(C)(C)CO2)OC1`, the IC50 in the test on MCF7, in the test on NCI-H460 and in the test on SF-268 was > 1000 µM throughout.
In the case of `Cc1ccc(C(P2(=O)OCC(C)(C)CO2)P2(=O)OCC(C)(C)CO2)cc1`, the half-inhibitory concentration (IC50) in the test with MCF7, in the test on NCI-H460 and with SF-268 was > 1000 µM throughout.
Regarding `C/C=C/C(P1(=O)OCC(C)(C)CO1)P1(=O)OCC(C)(C)CO1`, the IC50 in the test with MCF7, with NCI-H460 and in the test on SF-268 was > 1000 µM in each case.
Consider `C/C=C/C(P1(=O)Oc2ccccc2CN1c1ccc(F)c(Cl)c1)P1(=O)Oc2ccccc2CN1c1ccc(F)c(Cl)c1` (stereo unspecified), for which the figures for the IC50 in the test with MCF7, in the test with NCI-H460 and with SF-268 were 11.3 µM, 8.22 µM and 8.5 µM, respectively.

One may read the IC50 as the concentration that inhibits the measured activity by half.
